The values that follow come from patent publication EP0979831B1, “Antibacterial peptides and antibacterial agents containing such peptides as an effective ingredient” (National Institute of Agrobiological Sciences, priority 1998, dated 2003).

Values after ≈ are worked out from the molar mass of the structure shown. Residues, ends and D or L forms follow the SMILES beside them.

This assay relates to Escherichia coli. The assay is classed as cell-based. The method, then: Minimum Inhibitory Concentration (MIC) of these antibacterial peptides (1) to (5) against Staphylococcus aureus, methicillin resistant Staphylococcus aureus (MRSA), Escherichia coli and Pseudomonas aeruginosa was determined.

For `CC[C@H](C)[C@H](NC(=O)[C@H](C)NC(=O)[C@H](CC(C)C)NC(=O)[C@H](CCCNC(=N)N)NC(=O)[C@H](CC(C)C)NC(=O)[C@H](C)N)C(=O)N[C@@H](CCCNC(=N)N)C(=O)N[C@@H](CCCCN)C(=O)N[C@@H](CCCNC(=N)N)C(N)=O` [present peptide (1), Ala Leu Arg Leu Ala Ile Arg Lys Arg] (H-ALRLAIRKR-NH2), the “MIC E coli” value stood at 4 mg/L (≈ 3.65 µM).
Take `CC[C@H](C)[C@H](NC(=O)[C@H](C)NC(=O)[C@H](CC(C)C)NC(=O)[C@H](CC(C)C)NC(=O)[C@H](CC(C)C)NC(=O)[C@H](C)N)C(=O)N[C@@H](CCCNC(=N)N)C(=O)N[C@@H](CCCCN)C(=O)N[C@@H](CCCNC(=N)N)C(N)=O` [present peptide (2), Ala Leu Leu Leu Ala Ile Arg Lys Arg] (H-ALLLAIRKR-NH2): the “MIC E coli” value amounted to 6 mg/L (≈ 5.7 µM).
For `CC[C@H](C)[C@H](NC(=O)[C@H](C)NC(=O)[C@H](CC(C)C)NC(=O)[C@H](CC(C)C)NC(=O)[C@H](Cc1c[nH]c2ccccc12)NC(=O)[C@H](C)N)C(=O)N[C@@H](CCCNC(=N)N)C(=O)N[C@@H](CCCCN)C(=O)N[C@@H](CCCNC(=N)N)C(N)=O` [present peptide (3), Ala Trp Leu Leu Ala Ile Arg Lys Arg] (H-AWLLAIRKR-NH2), the “MIC E coli” value was found to be 5 mg/L (≈ 4.44 µM).
Turning to `CC[C@H](C)[C@H](NC(=O)[C@H](C)NC(=O)[C@H](CC(C)C)NC(=O)[C@H](Cc1ccc(O)cc1)NC(=O)[C@H](CC(C)C)NC(=O)[C@H](C)N)C(=O)N[C@@H](CCCNC(=N)N)C(=O)N[C@@H](CCCCN)C(=O)N[C@@H](CCCNC(=N)N)C(N)=O` [present peptide (4), Ala Leu Trp Leu Ala Ile Arg Lys Arg], the “MIC E coli” value stood at 4 mg/L (≈ 3.63 µM).
Consider `CC[C@H](C)[C@H](NC(=O)[C@H](C)NC(=O)[C@H](CC(C)C)NC(=O)[C@H](Cc1c[nH]c2ccccc12)NC(=O)[C@H](CC(C)C)NC(=O)[C@H](C)N)C(=O)N[C@@H](CCCNC(=N)N)C(=O)N[C@@H](CCCCN)C(=O)N[C@@H](CCCNC(=N)N)C(N)=O` [present peptide (5), Ala Leu Trp Leu Ala Ile Arg Lys Arg] (H-ALWLAIRKR-NH2), for which the “MIC E coli” value was 10 mg/L (≈ 8.89 µM).
